Where a SMILES comes first, the peptide text is derived from it. Bridges are numbered along the chain shown (N, C = ends). Where no end group is shown, it is not given here. The star is where a group is joined. Biotin = O=C1N[C@H]2[C@H](CS[C@H]2CCCCC(=O)*)N1
How the values were obtained:
FMC63 scFv [1] = experiment: Dissociation kinetics of FMC63 scFv from yeast clones, flow cytometry; type: binding, murine; settings: yeast clones labeled with FMC63 scFv, washed, incubated 0-72 hours
Experimental: The dissociation kinetics following binding of the mimotopes to FMC63 were also investigated. Briefly, yeast clone expressing F12 (SEQ ID NO: 18) or K-A1 (SEQ ID NO: 100) were incubated with labeled FMC63 scFv. The yeast were then washed, and incubated for 0-72 hours prior to analysis of the degree of FMC63 scFv labeling by flow cytometry. […] However, the yeast clone expressing K-A1 retained FMC63 even up to 72 hours, indicating slower dissociation kinetics compared to F12.

[2] = Micelle stability of lipid-oligonucleotide conjugates in the presence of serum (FBS); type: physicochemical; settings: for micelle stability on increasing number of guanines: in the presence of serum
Description: In certain embodiments, the linker is one or more guanines, for example between 1-10 guanines. It has been discovered that altering the number of guanines between a cargo such as a CpG oligonucleotide, and a lipid tail controls micelle stability in the presence of serum proteins. Therefore, the number of guanines in the linker can be selected based on the desired affinity of the conjugate for serum proteins such as albumin. When the cargo is a CpG immunostimulatory oligonucleotide and the lipid tail is a diacyl lipid, the number of guanines affects the ability of micelles formed in aqueous solution to dissociate in the presence of serum: 20% of the non-stabilized micelles (lipo-G0T10-CG) (SEQ ID NO: 138) were intact, while the remaining 80% were disrupted and bonded with FBS components.

FMC63 scFv [3] = experiment: Yeast clone binding to biotinylated FMC63 scFv monomer, Kd by FACS; parameters: species or system murine; settings: yeast clones
Experimental: Identifying specific mimotope clones of varying affinities will provide flexibility in treatments. In order to validate specific sequences, clones were isolated and measured for their affinity to FMC63. Specifically, a subset of mimotope clones were selected from the fixed library sequence described in Example 5. […] Given the FDA-approved CAR is an scFV derived from the parental IgG, mimotope binding to FMC63-scFv monomer was tested using biotinylated FMC63 scFV to measure Kd by FACS (FIG. 10B). […] This screen positively identified mimotope clones with varying affinities to FMC63 which may be used for a tailored vaccine approach.

FMC63 IgG [4] = experiment: ELISA of N-terminally biotinylated F12 variants on streptavidin plate, binding to FMC63 IgG; parameters: species or system murine; settings: biotinylated peptides, read-out: Kd (nM), FMC63 binding affinity of F12 variants with N-terminal flanking residues
Description: It was further evaluated if addition of flanking residues to the terminus of a FMC63-binding mimotope would increase its binding affinity to FMC63, e.g., by increasing the mimotope surface area available for engaging in protein-protein interactions with FMC63. […] Additional Ser-Gly residues (between 3 and 15 additional residues) were included to further extend the N-terminal flanking region.

FMC63 CAR T cells = experiment: In vivo proliferation of FMC63 CAR T cells in inguinal lymph nodes (cell trace violet dilution); settings: mice, s.c. tail base, 10 ug monovalent or 20 ug bivalent + 25 μg cyclic-di-GMP; inguinal LNs 48 hours post-vaccination
Experimental: CD45.1^+ donor FMC63 CAR T cells were prepared as described in Example 3 and labeled with cell trace violet according to manufacturer's protocol. 2×10^6 CAR T cells were administered into CD45.2^+ recipient mice via tail vein injection on Day 0. The following day, recipient mice were vaccinated by subcutaneous injection at the tail base with the following vaccine formulation: […]
(i) 10 ug of monovalent amph-mimotope (Amph-K-A1 or Amph-K-C2)+25 μg of cyclic-di-GMP in 1×PBS; or
(ii) 20 ug of amph-Bi-F12-mimotope (PEG4 or PEG8)+25 μg of cyclic-di-GMP in 1×PBS.
The volume of the formulation was 100 μL total, and the mice were administered 50 μL per each site of the tail base. Control mice received no vaccination. At 48 hours post-vaccination, recipient mice were euthanized and inguinal LNs were isolated for FACS analysis of CAR T proliferation.

FMC63 IgG [5] = experiment: Mimotope binding to FMC63 after DTT treatment of yeast, flow cytometry; parameters: species or system murine; settings: DTT 0.01-10 mM, 30 minutes, room temperature
Experimental: To determine the formation of an intra-peptidyl disulfide bridge formed by the two Cys residues, mimotope expressing yeast were treated in reducing conditions and binding of the mimotope to FMC63 IgG was measured. […] Similarly, control cells expressing Aga2p (connected to the yeast surface by disulfide bridge) were treated with DTT. Following treatment, cells were labelled with biotinylated Aga2p or FMC63 and binding was measured by flow cytometry. At mild reducing conditions, Aga2p was maintained on the yeast surface while mimotope binding to FMC63 was abolished (FIG. 6). The inhibition of mimotope binding to FMC63 following treatment with a reducing agent reaffirms the formation of the disulfide bond and its importance for binding.
Target sequence in this assay (as listed by the source): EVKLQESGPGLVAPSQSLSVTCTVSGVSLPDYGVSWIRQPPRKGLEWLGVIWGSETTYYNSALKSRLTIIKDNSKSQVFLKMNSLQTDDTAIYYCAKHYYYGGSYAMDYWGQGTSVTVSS
Target sequence in this assay (as listed by the source): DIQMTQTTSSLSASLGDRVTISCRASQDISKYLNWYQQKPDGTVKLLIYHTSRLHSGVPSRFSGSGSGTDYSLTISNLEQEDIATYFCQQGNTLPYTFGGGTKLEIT

[6] = tested on: FMC63 anti-hCD19 CAR-T cells; experiment: IFNγ secretion of FMC63 CAR-T cells co-cultured with amph-mimotope coated K562 cells (ELISA); type: cell-based; settings: K562 cells coated with 10 μM amph-mimotope; E:T 10:1; 24 hours; compared to amphiphile only control
Experimental: To determine the effect of the CD19 amph-mimotope on chimeric antigen receptor (CAR) T cells, in vitro stimulation of CAR-T cells was assessed after co-culture with antigen presenting cells (APCs) providing the amph-mimotope (FIG. 8A). Specifically, K562 cells were pelleted at 1,000×g for 3 minutes and washed with PBS twice to remove residual protein. The cell pellet was then resuspended at 1×10^6 cells/mL in PBS containing amph-mimotope ([…]; SEQ ID NO: 5) at 10 μM and incubated at 37° C. for 30 minutes. The labeling reaction was stopped by pelleting cells and washing with PBS. To mimic antigen presenting cells in lymph nodes, K562 cells were decorated with amph-mimotope, and then co-cultured at an effector to target (E:T) ratio of 10:1 with FMC63 expressing CAR-T cells (hCD19-CAR; SEQ ID NO: 78) for 24 hours. […]

Chain of FMC63 scFv (as listed by the source): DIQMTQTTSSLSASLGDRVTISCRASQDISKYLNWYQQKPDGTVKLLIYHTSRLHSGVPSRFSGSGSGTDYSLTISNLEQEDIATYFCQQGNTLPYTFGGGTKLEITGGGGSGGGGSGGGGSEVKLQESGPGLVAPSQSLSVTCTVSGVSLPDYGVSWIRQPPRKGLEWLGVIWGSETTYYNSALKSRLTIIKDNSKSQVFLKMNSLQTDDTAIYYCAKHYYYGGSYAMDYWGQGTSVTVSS

## PRKHSGRICPWNCKELDNPPFIFGNR [K-A1]
FMC63 scFv [1]
  time of retention of FMC63 scFv labeling after wash: ≥ 72 h

## lipo-G8T2-CG: diacyl lipid tail, G8T2 linker, CpG immunostimulatory oligonucleotide (DNA GGGGGGGGTTCG; diacyl lipid tail conjugated, backbone chemistry not given here)
[2]
  micelle stability on increasing number of guanines: did not further enhance micelle stability

## RMCPWSCRPH [Clone A8]
FMC63 scFv [3]
  Kd: > 1000 nM

## lipo-G10T0-CG: diacyl lipid tail, G10T0 linker, CpG immunostimulatory oligonucleotide (DNA GGGGGGGGGGCG; diacyl lipid tail conjugated, backbone chemistry not given here)
[2]
  micelle stability on increasing number of guanines: did not further enhance micelle stability

## CC[C@H](C)[C@H](NC(=O)[C@H](CCCNC(=N)N)NC(=O)[C@H](CO)NC(=O)[C@H](C)NC(=O)[C@H](CO)NC(=O)CNC(=O)CNC(=O)CNC(=O)CNC(=O)[C@H](CO)NC(=O)CNC(=O)CNC(=O)CNC(=O)CNC(=O)[C@H](CO)NC(=O)CNC(=O)CNC(=O)CNC(=O)CNC(=O)CCCC[C@@H]1SC[C@@H]2NC(=O)N[C@@H]21)C(=O)N[C@H]1CSSC[C@@H](C(=O)N[C@@H](CCCCN)C(=O)N[C@@H](CCC(=O)O)C(=O)N[C@@H](CC(C)C)C(=O)O)NC(=O)[C@H](CC(N)=O)NC(=O)[C@H](Cc2c[nH]c3ccccc23)NC(=O)[C@@H]2CCCN2C1=O [SEQ ID NO: 99] (Biotin-GGGGSGGGGSGGGGSASRICPWNCKEL-OH; disulfide 20-24)
FMC63 IgG [4]
  Kd: 0.153 nM

## lipo-G0T10-CG: diacyl lipid tail, G0T10 linker, CpG immunostimulatory oligonucleotide; non-stabilized micelles (DNA TTTTTTTTTTCG; diacyl lipid tail conjugated, backbone chemistry not given here)
[2]; in the presence of serum (FBS)
  percentage of micelles disrupted and bonded with FBS components: 80%

## CC[C@H](C)[C@H](NC(=O)[C@H](CCCNC(=N)N)NC(=O)[C@H](CO)NC(=O)[C@H](C)NC(=O)[C@H](CO)NC(=O)CNC(=O)CNC(=O)CNC(=O)CNC(=O)[C@H](CO)NC(=O)CNC(=O)CNC(=O)CNC(=O)CNC(=O)[C@H](CO)NC(=O)CNC(=O)CCCC[C@@H]1SC[C@@H]2NC(=O)N[C@@H]21)C(=O)N[C@H]1CSSC[C@@H](C(=O)N[C@@H](CCCCN)C(=O)N[C@@H](CCC(=O)O)C(=O)N[C@@H](CC(C)C)C(=O)O)NC(=O)[C@H](CC(N)=O)NC(=O)[C@H](Cc2c[nH]c3ccccc23)NC(=O)[C@@H]2CCCN2C1=O [SEQ ID NO: 98] (Biotin-GSGGGGSGGGGSASRICPWNCKEL-OH; disulfide 17-21)
FMC63 IgG [4]
  Kd: 0.134 nM

## CC[C@H](C)[C@H](NC(=O)[C@H](CCCNC(=N)N)NC(=O)[C@H](CO)NC(=O)[C@H](C)NC(=O)[C@H](CO)NC(=O)CNC(=O)CNC(=O)CNC(=O)CNC(=O)[C@H](CO)NC(=O)CNC(=O)CNC(=O)CCCC[C@@H]1SC[C@@H]2NC(=O)N[C@@H]21)C(=O)N[C@H]1CSSC[C@@H](C(=O)N[C@@H](CCCCN)C(=O)N[C@@H](CCC(=O)O)C(=O)N[C@@H](CC(C)C)C(=O)O)NC(=O)[C@H](CC(N)=O)NC(=O)[C@H](Cc2c[nH]c3ccccc23)NC(=O)[C@@H]2CCCN2C1=O [SEQ ID NO: 97] (Biotin-GGSGGGGSASRICPWNCKEL-OH; disulfide 13-17)
FMC63 IgG [4]
  Kd: 0.139 nM

## Amph-K-C2: monovalent amph-mimotope: mimotope SEQ ID NO: 129 conjugated to DSPE-PEG2k (GGGSASRICPWNCKELPSPPRIFGNR; not fully specified; DSPE-PEG2k conjugate; Synthetic: Mimotope of Amph-K-C2)
FMC63 CAR T cells
  proliferation of CAR T cells in vivo measured by cell violet dilution: observed

## RHCPWNCSLL [Clone A1]
FMC63 IgG [5]
  mimotope binding to FMC63 after DTT treatment: abolished

## RICPWSCMVV [Clone B7]
FMC63 scFv [3]
  Kd: > 1000 nM

## RICPWNCKEL [Clone F12]
FMC63 scFv [1]
  time of retention of FMC63 scFv labeling after wash: ≤ 0.5 h

## amph-mimotope: DSPE-PEG2000 conjugated onto the N-terminus of synthesized cyclic mimotope RHCPWNCSLL (SEQ ID NO: 5) (disulfide 3-7 (inferred); not fully specified (N-terminus))
[6]
  activation of CAR-T cells measured by IFNγ secretion: significantly activated
